The source of these data is ChEMBL document CHEMBL5236546, “Potent and Subtype-Selective Dopamine D2 Receptor Biased Partial Agonists Discovered via an Ugi-Based Approach” (J Med Chem, 2021).

The target of one assay is T1, D(4) dopamine receptor (Homo sapiens, UniProt P21917).
T1 sequence (P21917 whole entry): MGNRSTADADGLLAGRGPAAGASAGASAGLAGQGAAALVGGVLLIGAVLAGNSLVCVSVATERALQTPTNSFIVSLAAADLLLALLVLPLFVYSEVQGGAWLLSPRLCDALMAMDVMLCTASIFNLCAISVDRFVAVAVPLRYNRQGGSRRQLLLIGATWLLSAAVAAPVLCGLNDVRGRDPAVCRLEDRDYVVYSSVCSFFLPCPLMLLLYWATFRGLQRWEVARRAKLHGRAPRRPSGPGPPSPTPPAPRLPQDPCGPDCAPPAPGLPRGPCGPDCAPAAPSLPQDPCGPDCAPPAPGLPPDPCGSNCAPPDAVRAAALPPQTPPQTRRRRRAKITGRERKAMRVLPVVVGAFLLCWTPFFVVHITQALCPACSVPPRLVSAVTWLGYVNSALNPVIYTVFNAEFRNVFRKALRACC

Another assay addresses D(3) dopamine receptor (Homo sapiens, UniProt P35462).
The target of another assay is D(2) dopamine receptor (Homo sapiens, UniProt P14416).
Sequence of D(2) dopamine receptor (P14416 whole entry): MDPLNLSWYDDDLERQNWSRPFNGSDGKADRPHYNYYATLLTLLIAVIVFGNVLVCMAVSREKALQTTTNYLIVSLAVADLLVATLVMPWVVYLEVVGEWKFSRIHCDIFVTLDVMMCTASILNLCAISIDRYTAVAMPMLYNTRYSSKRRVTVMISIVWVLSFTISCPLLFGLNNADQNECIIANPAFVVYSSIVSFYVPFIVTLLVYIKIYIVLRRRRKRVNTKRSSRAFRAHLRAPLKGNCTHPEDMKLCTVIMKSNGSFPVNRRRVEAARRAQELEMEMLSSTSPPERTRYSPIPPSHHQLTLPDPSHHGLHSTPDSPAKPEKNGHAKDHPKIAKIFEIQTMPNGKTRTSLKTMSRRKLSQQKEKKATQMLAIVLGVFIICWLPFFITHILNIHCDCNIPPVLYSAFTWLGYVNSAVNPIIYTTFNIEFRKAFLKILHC

Sequence of D(3) dopamine receptor (P35462 whole entry): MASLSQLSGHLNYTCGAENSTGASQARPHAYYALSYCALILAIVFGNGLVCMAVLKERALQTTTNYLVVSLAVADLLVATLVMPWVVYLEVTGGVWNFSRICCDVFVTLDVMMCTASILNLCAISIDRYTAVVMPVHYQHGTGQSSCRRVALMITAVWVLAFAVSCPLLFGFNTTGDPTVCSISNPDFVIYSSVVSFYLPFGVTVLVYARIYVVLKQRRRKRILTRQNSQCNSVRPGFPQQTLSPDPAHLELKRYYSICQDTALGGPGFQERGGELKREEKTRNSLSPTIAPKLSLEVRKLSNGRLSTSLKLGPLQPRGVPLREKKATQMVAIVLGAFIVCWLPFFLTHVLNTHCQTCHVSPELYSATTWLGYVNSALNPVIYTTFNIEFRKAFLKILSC
Description for D(2) dopamine receptor: Partial agonist activity at D2 receptor (unknown origin) assessed as increase in cAMP accumulation
Description for D(3) dopamine receptor: Partial agonist activity at human D3 receptor assessed as inhibition constant
Description for D(4) dopamine receptor: Partial agonist activity at human D4 receptor assessed as inhibition constant

Usually Ki stands for the equilibrium dissociation constant of an inhibitor or competing ligand from its target. Read a low Ki as a stronger hold on the target. As for `CN(C)C(=O)N[C@H]1CC[C@H](CCN2CCN(c3cccc(Cl)c3Cl)CC2)CC1` [CARIPRAZINE], the Ki entry at D(4) dopamine receptor is recorded as “Not Active”.

On to `CC1Cc2ccccc2N1C(=O)NCCCCN(C)[C@H]1Cc2cccc3[nH]c(=O)n(c23)C1` (some centres undefined), for which the Ki at D(3) dopamine receptor is 0.139 µM; at D(4) dopamine receptor it was “Not Active”.

`Cn1ccc2c(N3CCN(CCCCOc4ccc5c(c4)NC(=O)CC5)CC3)cccc21`: at D(2) dopamine receptor, the EC50 entry is on record as “Not Active”.
